For one test, the target named is hNav1.7 (Homo sapiens (Human), UniProt Q15858). In words: Electrophysiology (EP) assay, whole-cell patch clamp in hNav1.7 expressing HEK-293 cells. The format is cell-based. To be noted: affinity for inactivated state of hNav1.7, HEK-293; read-out: Nav1.7 Activity (μM) EP assay Ki. As for the experimental part: Cells Manual Electrophysiology: The hNav1.7 expressing HEK-293 cells are plated on 35 mm culture dishes pre-coated with poly-D-lysine in standard DMEM culture media (Mediatech, Inc., Herndon, Va.) and incubated in a 5% CO2 incubator at 37° C. Cultured cells are used approximately 12-48 hours after plating.
Cells Automated Electrophysiology: The hNav1.7 expressing HEK-293 cells are plated on tissue culture flasks in standard DMEM culture media (Mediatech, Inc.) and incubated in a 5% CO2 incubator at 37° C. Cultured cells are used approximately 12-48 hours after plating.
Manual Electrophysiology: On the day of experimentation, the 35 mm dish is placed on the stage of an inverted microscope equipped with a perfusion system that continuously perfuses the culture dish with fresh recording media. A gravity driven superfusion system is used to apply test solutions directly to the cell under evaluation. This “shooter” system consists of an array of glass pipettes connected to a motorized horizontal translator. The outlet of the shooter is positioned approximately 100 μm from the cell of interest.
Whole cell currents are recorded using the whole-cell patch clamp configuration using an Axopatch 200B amplifier (Axon Instruments, Foster City, Calif.), 1322A A/D converter (Axon Instruments) and pClamp software (v. 8; Axon Instruments) and stored on a personal computer. Gigaseals are formed and the whole-cell configuration is established in voltage clamp mode, and membrane currents generated by hNav1.7 channels are recorded. Borosilicate glass pipettes with resistance values between 1.5 and 2.0 MΩ when filled with pipette solution are used and series resistance (<5 MΩ) is compensated by 75-80%. Signals are sampled at 50 kHz and low pass filtered at 3 kHz.
Automated Electrophysiology: On the day of experimentation, cells are prepared by removing media and digesting with appropriate enzymes to suspend cells in external solution.
Whole cell currents are recorded using the whole-cell patch clamp configuration using an Patchliner (Nanion Technologies, Munich Germany), EPC 10 quadro amplifiers (HEKA, Bellmore, N.Y.) and PatchControl HT 10905 (Nanion Technologies) and PatchMaster v2x73 software (HEKA) and stored on a personal computer. Gigaseals are formed and the whole-cell configuration is established in voltage clamp mode, and membrane currents generated by hNav1.7 are recorded. NPC-16 chips have resistance values between 1.0 and 2.0 MΩ when filled with pipette solution and series resistance (<5 MΩ). Signals are sampled at 25 kHz and low pass filtered at 3 kHz.
Voltage protocols Manual Electrophysiology: After establishing the whole-cell configuration in voltage clamp mode, voltage protocols are run to establish the 1) test potential (Vmax), 2) holding potential (Vh), and 3) the conditioning potential for each cell.
After establishing the whole-cell configuration in voltage clamp mode, a standard I-V protocol is run to determine the potential at which the maximal current (Imax) is elicited. This potential is the test potential (Vt). To determine a conditioning potential at which 100% of channels are in the inactivated state, a standard steady-state inactivation (SSIN) protocol is run using a series of fifteen 100 ms-long depolarizing prepulses, incrementing in 10 mV steps, immediately followed by a 5 ms testing pulse to Vmax. This protocol also permits determination of the holding potential at which all channels are in the resting state.
For compounds causing significant retardation of recovery from inactivation, an estimate of the affinity for the inactivated state of the channel (Ki) is generated using the following protocol. From the negative, no residual inactivation, holding potential, the cell is depolarized to the conditioning voltage for 2-5 seconds, returned to the negative holding potential for 10-20 ms to relieve fast inactivation and then depolarized to the test potential for ˜15 ms. […]

The next test deals with human Nav1.7 (Homo sapiens (Human), UniProt Q15858). Kind of test: FLIPR or FLIPR TETRA sodium dye assay with KCl and test article pre-incubation. The class given is cell-based.
Where [1] appears, read: recombinant human Nav1.7 in HEK293, veratridine + scorpion venom.

For 22 compounds, Ki and IC50 results are on record in patent publication US9745287B2, “Pyrimidines and use thereof” (Purdue Pharma L.P., priority 2013, dated 2017).

Where two headings read alike, the source gives them in different places.

Chain of hNav1.7 (Q15858 other isoform, or with tags, fused parts or gaps): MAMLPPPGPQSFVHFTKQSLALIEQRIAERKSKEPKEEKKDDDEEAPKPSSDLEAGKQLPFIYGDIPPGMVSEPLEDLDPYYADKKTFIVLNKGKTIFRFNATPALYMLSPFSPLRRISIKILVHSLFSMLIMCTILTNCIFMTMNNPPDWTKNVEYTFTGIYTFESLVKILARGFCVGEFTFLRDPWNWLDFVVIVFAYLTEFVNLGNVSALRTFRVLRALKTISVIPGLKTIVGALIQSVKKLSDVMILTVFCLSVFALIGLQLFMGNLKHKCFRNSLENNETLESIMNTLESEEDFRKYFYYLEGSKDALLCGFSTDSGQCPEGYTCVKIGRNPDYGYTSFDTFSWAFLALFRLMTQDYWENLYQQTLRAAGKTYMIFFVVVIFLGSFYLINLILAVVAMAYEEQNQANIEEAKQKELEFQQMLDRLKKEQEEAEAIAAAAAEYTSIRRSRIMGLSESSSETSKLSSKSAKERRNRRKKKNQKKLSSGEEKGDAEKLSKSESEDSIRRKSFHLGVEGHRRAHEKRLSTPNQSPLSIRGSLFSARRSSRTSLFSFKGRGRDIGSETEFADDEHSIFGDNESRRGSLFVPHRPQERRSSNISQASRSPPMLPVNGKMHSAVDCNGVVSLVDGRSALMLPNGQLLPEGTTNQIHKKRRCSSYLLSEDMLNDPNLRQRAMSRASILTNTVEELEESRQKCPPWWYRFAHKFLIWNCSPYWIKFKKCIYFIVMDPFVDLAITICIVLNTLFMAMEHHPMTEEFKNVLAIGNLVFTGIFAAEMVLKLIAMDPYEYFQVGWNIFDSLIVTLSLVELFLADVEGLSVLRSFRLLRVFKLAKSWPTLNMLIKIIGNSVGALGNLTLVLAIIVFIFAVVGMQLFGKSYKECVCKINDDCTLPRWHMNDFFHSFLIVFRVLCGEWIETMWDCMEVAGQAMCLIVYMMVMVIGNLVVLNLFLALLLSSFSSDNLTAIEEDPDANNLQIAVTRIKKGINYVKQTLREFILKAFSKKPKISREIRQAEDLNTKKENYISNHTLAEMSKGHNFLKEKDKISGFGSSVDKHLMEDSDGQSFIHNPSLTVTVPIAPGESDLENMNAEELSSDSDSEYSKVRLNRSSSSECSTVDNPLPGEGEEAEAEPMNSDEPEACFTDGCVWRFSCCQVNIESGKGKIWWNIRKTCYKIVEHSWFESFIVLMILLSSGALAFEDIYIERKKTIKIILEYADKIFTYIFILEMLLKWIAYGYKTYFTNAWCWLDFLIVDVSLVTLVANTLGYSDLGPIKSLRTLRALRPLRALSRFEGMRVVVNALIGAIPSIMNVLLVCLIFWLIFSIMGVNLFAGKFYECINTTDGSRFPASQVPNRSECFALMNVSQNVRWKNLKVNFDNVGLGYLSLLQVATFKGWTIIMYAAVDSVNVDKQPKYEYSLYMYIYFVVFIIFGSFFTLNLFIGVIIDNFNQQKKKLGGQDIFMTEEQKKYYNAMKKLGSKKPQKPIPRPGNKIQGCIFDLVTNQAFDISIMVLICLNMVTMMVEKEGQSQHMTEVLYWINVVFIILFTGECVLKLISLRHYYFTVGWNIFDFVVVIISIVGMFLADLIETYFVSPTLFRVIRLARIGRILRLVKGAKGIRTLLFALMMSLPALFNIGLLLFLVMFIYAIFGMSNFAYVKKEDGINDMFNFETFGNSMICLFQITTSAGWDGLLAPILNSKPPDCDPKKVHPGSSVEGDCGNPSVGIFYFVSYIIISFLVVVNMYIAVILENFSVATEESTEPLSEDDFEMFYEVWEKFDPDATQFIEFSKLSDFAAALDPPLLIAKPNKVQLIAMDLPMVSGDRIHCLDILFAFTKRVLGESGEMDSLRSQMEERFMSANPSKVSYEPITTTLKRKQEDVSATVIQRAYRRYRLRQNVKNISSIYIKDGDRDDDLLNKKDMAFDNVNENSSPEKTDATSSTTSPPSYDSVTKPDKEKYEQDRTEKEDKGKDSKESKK
Chain of human Nav1.7 (Q15858 other isoform, or with tags, fused parts or gaps): as above

Consider `NC(=O)c1cc(CN[C@H]2CCNC2=O)nc(-c2ccc(Oc3ccc(C4CC4)cn3)cc2)n1` [Compound 14, (S)-2-(4-((5-cyclopropylpyridin-2-yl)oxy)phenyl)-6-(((2-oxopyrrolidin-3-yl)amino)-methyl)pyrimidine-4-carboxamide], for which the Ki on hNav1.7 amounted to 1.41 ± 0.231 µM. In addition, the IC50 on human Nav1.7 (setting [1]) stood at 3.39 ± 1.15 µM.
`NC(=O)c1cc(CN[C@H]2CCNC2=O)nc(-c2ccc(Oc3ccc(Cl)cc3F)cc2)n1` [Compound 15]: the Ki on hNav1.7 amounted to 0.041 ± 0.006 µM. Moreover, at human Nav1.7 (setting [1]), the IC50 amounted to 0.065 ± 0.01 µM.
`NC(=O)c1cc(CN2CCC[C@H]2C(N)=O)nc(-c2ccc(Oc3ccc(C(F)(F)F)cc3)cc2)n1` [Compound 16, (S)-6-((2-carbamoylpyrrolidin-1-yl)methyl)-2-(4-(4-(trifluoro-methyl)phenoxy)phenyl)pyrimidine-4-carboxamide]: the IC50 on human Nav1.7 (setting [1]) was 0.085 ± 0.012 µM.
On the same count and under the same terms, with `NC(=O)c1cc(CN[C@H]2CCNC2=O)nc(-c2ccc(Oc3ccc(C(F)(F)F)cc3)cc2)n1` [Compound 20, (S)-6-(((2-oxopyrrolidin-3-yl)amino)methyl)-2-(4-(4-(trifluoromethyl)phenoxy)phenyl)pyrimidine-4-carboxamide] the figure was 0.439 ± 0.023 µM; with `C[C@H](NCc1cc(C(N)=O)nc(-c2ccc(Oc3ccc(C(F)(F)F)cc3)cc2)n1)C(N)=O` [Compound 21, (S)-6-(((1-amino-1-oxopropan-2-yl)amino)methyl)-2-(4-(4-(trifluoromethyl)phenoxy)phenyl)pyrimidine-4-carboxamide], 0.042 ± 0.006 µM.
Take `CC(C)[C@H](NCc1cc(C(N)=O)nc(-c2ccc(Oc3ccc(C(F)(F)F)cc3)cc2)n1)C(N)=O` [Compound 22, (S)-6-(((1-amino-3-methyl-1-oxobutan-2-yl)amino)methyl)-2-(4-(4-(trifluoromethyl)-phenoxy)phenyl)pyrimidine-4-carboxamide]: at hNav1.7, the Ki was found to be 0.22 ± 0.034 µM. The half-inhibitory concentration (IC50) on human Nav1.7 (setting [1]) worked out at 0.2 ± 0.045 µM.
Consider `NC(=O)c1cc(CN[C@@H](CO)C(N)=O)nc(-c2ccc(Oc3ccc(C(F)(F)F)cc3)cc2)n1` [Compound 23, (S)-6-(((1-amino-3-hydroxy-1-oxopropan-2-yl)amino)methyl)-2-(4-(4-(trifluoromethyl)-phenoxy)phenyl)pyrimidine-4-carboxamide], for which, at hNav1.7, the Ki amounted to 0.145 ± 0.044 µM. Moreover, the half-maximal inhibitory concentration (IC50) on human Nav1.7 (setting [1]) came out at 0.2 ± 0.045 µM.
Take `NC(=O)c1cc(CN2C[C@H](O)C[C@H]2C(N)=O)nc(-c2ccc(Oc3ccc(C(F)(F)F)cc3)cc2)n1` [Compound 24, 6-(((2S, 4R)-2-carbamoyl-4-hydroxypyrrolidin-1-yl)methyl)-2-(4-(4-(trifluoromethyl)-phenoxy)phenyl)pyrimidine-4-carboxamide]: on hNav1.7, the Ki came out at 0.342 ± 0.095 µM. Also, the half-inhibitory concentration (IC50) at human Nav1.7 (setting [1]) is 0.583 ± 0.056 µM.
In the case of `NC(=O)c1cc(CN[C@H]2CCNC2=O)nc(-c2ccc(Oc3ccc(C(F)(F)F)cn3)cc2)n1` [Compound 26, (S)-6-(((2-oxopyrrolidin-3-yl)amino)methyl)-2-(4-((5-(trifluoromethyl)pyridin-2-yl)oxy)phenyl)pyrimidine-4-carboxamide], the Ki on hNav1.7 came out at 0.662 ± 0.13 µM. Moreover, on human Nav1.7 (setting [1]), the IC50 is 1.75 ± 0.6 µM.
`NC(=O)c1cc(CN2CCNC(=O)C2)nc(-c2ccc(Oc3ccc(C(F)(F)F)cc3)cc2)n1` [Compound 27, 6-((3-oxopiperazin-1-yl)-methyl)-2-(4-(4-(trifluoro-methyl)phenoxy)phenyl)pyrimidine-4-carboxamide]: the Ki at hNav1.7 was 0.08 ± 0.027 µM. The concentration for half-maximal inhibition (IC50) on human Nav1.7 (setting [1]) came out at 0.072 ± 0.008 µM.
At human Nav1.7, `NC(=O)c1cc(CN2CCNC(=O)C2)nc(-c2ccc(Oc3ccc(C(F)(F)F)cn3)cc2)n1` [Compound 28, 6-((3-oxopiperazin-1-yl)-methyl)-2-(4-((5-(trifluoro-methyl)pyridin-2-yl)oxy)-phenyl)pyrimidine-4-carboxamide] displayed a 50% inhibitory concentration (IC50) of 2.45 ± 0.133 µM.
With `O=C1NCC[C@@H]1NCc1cc([C@H](O)CO)nc(-c2ccc(Oc3ccc(OC(F)(F)F)cc3)cc2)n1` [Compound 40, (S)-3-(((6-((S)-1,2-dihydroxyethyl)-2-(4-(4-(trifluoromethoxy)phenoxy)phenyl)pyrimidin-4-yl)methyl)-amino)pyrrolidin-2-one], the Ki at hNav1.7 turned out to be 2.68 ± 0.206 µM. Besides, the half-inhibitory concentration (IC50) at human Nav1.7 (setting [1]) was found to be 1.55 ± 0.215 µM.
`O=C1CN(Cc2cc([C@H](O)CO)nc(-c3ccc(Oc4ccc(OC(F)(F)F)cc4)cc3)n2)CCN1` [Compound 41, (S)-4-((6-(1,2-dihydroxyethyl)-2-(4-(4-(trifluoromethoxy)-phenoxy)phenyl)pyrimidin-4-yl)methyl)piperazin-2-one]: the Ki at hNav1.7 turned out to be 0.875 ± 0.167 µM. At human Nav1.7, half-maximal inhibition (IC50) was put at 1.19 ± 0.11 µM.
On to `NC(=O)c1cc(CO)nc(C2=CCC(Oc3ccc(C(F)(F)F)cc3)CC2)n1` (stereo not drawn) [Compound 54, 6-(hydroxymethyl)-2-(4-(4-(trifluoromethyl)phenoxy)cyclohex-1-en-1-yl)pyrimidine-4-carboxamide], for which the IC50 on human Nav1.7 (setting [1]) stood at 0.242 ± 0.023 µM.
`NC(=O)c1cc(CN[C@@H]2CCNC2=O)nc(C2=CCC(Oc3ccc(C(F)(F)F)cc3)CC2)n1` (stereo partly drawn) [Compound 56, 6-((((R)-2-oxopyrrolidin-3-yl)amino)methyl)-2-(4-(4-(trifluoromethyl)phenoxy)cyclohex-1-en-1-yl)pyrimidine-4-carboxamide]: the Ki at hNav1.7 was 0.117 ± 0.01 µM. Also, the IC50 at human Nav1.7 (setting [1]) was 0.544 ± 0.062 µM.
In the case of `C[C@H](NCc1cc(C(N)=O)nc(C2=CCC(Oc3ccc(C(F)(F)F)cc3)CC2)n1)C(N)=O` (stereo partly drawn) [Compound 57], the Ki at hNav1.7 came to 0.175 ± 0.039 µM. The IC50 at human Nav1.7 (setting [1]) came out at 0.557 ± 0.049 µM.
For the compound `NC(=O)c1cc(CN[C@@H](CO)C(N)=O)nc(C2=CCC(Oc3ccc(C(F)(F)F)cc3)CC2)n1` (stereo partly drawn) [Compound 58, 6-((((S)-1-amino-3-hydroxy-1-oxopropan-2-yl)amino)-methyl)-2-(4-(4-(trifluoromethyl)-phenoxy)cyclohex-1-en-1-yl)pyrimidine-4-carboxamide], the Ki on hNav1.7 turned out to be 0.524 ± 0.161 µM. The IC50 on human Nav1.7 (setting [1]) was 1.47 ± 0.091 µM.
Take `NC(=O)c1cc(CN2CCNC(=O)C2)nc(C2=CCC(Oc3ccc(C(F)(F)F)cc3)CC2)n1` (stereo not drawn) [Compound 59, 6-((3-oxopiperazin-1-yl)-methyl)-2-(4-(4-(trifluoro-methyl)phenoxy)cyclohex-1-en-1-yl)pyrimidine-4-carboxamide]: the Ki at hNav1.7 was 0.059 ± 0.018 µM. Besides, the IC50 at human Nav1.7 turned out to be 0.07 ± 0.003 µM.
Consider `CC1(C)C(=O)NCCN1Cc1cc(C(N)=O)nc(-c2ccc(Oc3ccc(C(F)(F)F)cn3)cc2)n1` [Compound 60, 6-((2,2-dimethyl-3-oxopiperazin-1-yl)methyl)-2-(4-((5-(trifluoromethyl)pyridin-2-yl)oxy)phenyl)pyrimidine-4-carboxamide], for which the half-maximal inhibitory concentration (IC50) on human Nav1.7 (setting [1]) was > 20 µM.
On to `CC1(C)C(=O)NCCN1Cc1cc(C(N)=O)nc(-c2ccc(Oc3ccc(C(F)(F)F)cc3)cc2)n1` [Compound 61, 6-((2,2-dimethyl-3-oxopiperazin-1-yl)methyl)-2-(4-(4-(trifluoromethyl)phenoxy)-phenyl) pyrimidine-4-carboxamide], for which, on human Nav1.7, the IC50 stood at 0.627 ± 0.022 µM.
As to `NC(=O)c1cc(CN2CC(=O)NC(=O)C2)nc(-c2ccc(Oc3ccc(C(F)(F)F)cc3)cc2)n1` [Compound 62, 6-((3,5-dioxopiperazin-1-yl)methyl)-2-(4-(4-(trifluoro-methyl)phenoxy)phenyl)pyrimidine-4-carboxamide], the IC50 at human Nav1.7 (setting [1]) was determined as 0.205 ± 0.006 µM.
As to `NC(=O)c1cc(CN2CC[C@@H](O)[C@H]2C(N)=O)nc(-c2ccc(Oc3ccc(C(F)(F)F)cc3)cc2)n1` [Compound 65, 6-(((2S,3R)-2-carbamoyl-3-hydroxypyrrolidin-1-yl)methyl)-2-(4-(4-(trifluoromethyl)-phenoxy)phenyl)pyrimidine-4-carboxamide], the Ki at hNav1.7 came to 0.046 ± 0.009 µM. Also, the IC50 at human Nav1.7 (setting [1]) was 0.094 ± 0.008 µM.

A word on the IC50: it is the concentration that inhibits the measured activity by half.
